# Several values for one entry are separate records, joined by “and”; a condition that tells them apart may be missing. Equal entries are not always repeated.
# Experiments:
# [1] = tested on: patients with narcolepsy type 1 (NT1); assay: Safety/tolerability of a single dose given as 9 hour continuous IV infusion in NT1 patients; assay type: in vivo, human
# Protocol: This study investigates (i) the safety and tolerability of Compound A (methyl (2R,3S)-3-((methylsulfonyl)amino)-2-(((cis-4-phenylcyclohexyl)oxy)methyl)piperidine-1-carboxylate) when a single dose given as a 9 hour continuous IV infusion is administered to healthy adults, healthy elderly subjects and patients with narcolepsy type 1 (NT1); (ii) the pharmacokinetics of Compound A when a single dose given as a 9 hour continuous IV infusion is administered to healthy adults, healthy elderly subjects and patients with narcolepsy type 1; and (iii) the pharmacodynamics (PD) effects of Compound A, primarily by evaluation of the sleep latency on MWT when a single dose given as a 9 hour continuous IV infusion is administered to patients with narcolepsy type 1.
# Safety and tolerability: adverse events, vital signs, 12-lead ECG and clinical laboratory tests (hematological tests, blood biochemical tests and urinalysis)
# To investigate the safety of Compound A, the treatment-emergent adverse events (TEAEs) for healthy subjects and subjects with narcolepsy type 1 (NT1 patients) treated with Compound A were evaluated. A summary of the TEAEs for healthy subjects from cohorts 1 and 2 is shown in FIG. 3, for healthy subjects from cohorts S1, S2, 3, and 4 is shown in FIG. 4, and for NT1 patients is shown in FIG. 5.
# [2] = CSF PK in healthy subjects (Cohort 4); assay type: in vivo; conditions: human; for concentration at 6 h: cerebrospinal fluid, intravenous, 112 mg, Cohort 4
# Protocol: Pharmacokinetics: Concentrations of Compound A in plasma, and CSF, and pharmacokinetics parameters.
# Following a single 9-hour IV infusion of 112 mg to healthy adult subjects in Cohort 4, Compound A plasma concentration-time profile was consistent with that observed in Cohort 1. At 6 hours after the start of infusion, mean ratio CSF/plasma concentration of Compound A was estimated to be about 2.8%.
# [3] = tested on: patients with narcolepsy type 1 (NT1); assay: Sleep latency in Maintenance of Wakefulness Test (MWT), single dose (Cohorts 5, 6, 7); assay type: in vivo, human; conditions: for average sleep latency in MWT, mean (SD): NT1 (placebo 2.88); for Average Sleep Latency in MWT: Cohort 5, 6, 7
# Protocol: In Part 2, NT1 patients received a single dose of Compound A or placebo administered as a continuous IV infusion over a 9-hour period during the day. A 40-minute Maintenance of Wakefulness Test (MWT) was conducted 4 times during the continuous IV infusion to assess effects on wakefulness in soporific conditions at 2, 4, 6 and 8 hours from start of infusion. Three cohorts of patients were enrolled (n=14 total).
# The average sleep latency in the Maintenance Wakefulness Test (MWT)
# Sleep related parameters in the MWT (sleep latency (SL) in each session).
# The pharmacodynamics (PD) for sleepiness is shown in FIG. 8, which depicts the average post-dose MWT sleep latency for NT1 patients overall all dose time points. Due to the crossover design, some subjects in the placebo group were the same as some subjects in 5 mg-44.8 mg group.
# [4] = tested on: patients with narcolepsy type 1 (NT1); assay: Number of cataplexy episodes (daily diary), single dose (Cohorts 5, 6, 7); assay type: in vivo, human; conditions: for Number of Events of Cataplexy per Week in one particular patient: cohort 7
# Excerpt: Assessment of cataplexy and other sleep manifestations using a daily diary to collect episodes of cataplexy and sleep symptoms associated with NT1.
structure (smiles),measurement,setting,value
"COC(=O)N1CCC[C@H](NS(C)(=O)=O)[C@@H]1CO[C@H]1CC[C@@H](c2ccccc2)CC1 [Compound A, methyl (2R,3S)-3-((methylsulfonyl)amino)-2-(((cis-4-phenylcyclohexyl)oxy)methyl)piperidine-1-carboxylate]",AEs observed in NT1 at the highest dose,[1]; 44.8 mg,"Blood pressure increase, heart rate increase, central nervous system (CNS) related symptoms (euphoric mood, hypnagogic hallucination and logorrhea) and salivary hypersecretion were observed"
same,dose dependent effect on BP and heart rate increase,"[1]; NT1 subjects, doses up to 44.8 mg",not notable
same,tolerability,"[1]; single dose, slow infusion over 9 hours, up to 44.8 mg, narcolepsy type 1 patients",well-tolerated with no major safety concerns
same,Kp at 6 h,"[2]; CSF, 112 mg single 9-hour IV infusion, 6 hours after the start of infusion, healthy adults Cohort 4, read-out: mean ratio CSF/plasma concentration",~0.028
same,concentration at 6 h,[2]; Mean,6.73 ng/mL
same,concentration at 6 h,[2]; Median,6.63 ng/mL
same,"average sleep latency in MWT, LS mean difference (95% CI) minus placebo",[3]; 5 mg,"18.792 (11.987, 25.596) min"
same,"average sleep latency in MWT, mean (SD)",[3]; 5 mg single 9 h IV infusion,22.38 (10.125) min and 22.4 min and 22.38 min
same,"Sleep latency in MWT by visit, Mean","[3]; 5 mg, 10:00 (infusion start 7:45)",25.25 min
same,"Sleep latency in MWT by visit, Mean","[3]; 5 mg, 12:00",29.75 min
same,"Sleep latency in MWT by visit, Mean","[3]; 5 mg, 14:00",8.92 min
same,"Sleep latency in MWT by visit, Mean","[3]; 5 mg, 16:00",25.58 min
same,"average sleep latency in MWT, LS mean difference (95% CI) minus placebo",[3]; 11.2 mg,"36.063 (27.729, 44.396) min"
same,subjects achieving the maximum sleep latency (40 min) in MWT,[3]; 11.2 mg,3 out of 4
same,"average sleep latency in MWT, mean (SD)",[3]; 11.2 mg single 9 h IV infusion,37.59 (4.813) min and 37.6 min and 37.59 min
same,"Sleep latency in MWT by visit, Mean","[3]; 11.2 mg, 10:00",37.38 min
same,"Sleep latency in MWT by visit, Mean","[3]; 11.2 mg, 14:00",33.00 min
same,"Sleep latency in MWT by visit, Mean","[3]; 11.2 mg, 16:00",40.00 min
same,"average sleep latency in MWT, LS mean difference (95% CI) minus placebo",[3]; 44.8 mg,"36.662 (27.344, 45.979) min"
same,"average sleep latency in MWT, mean (SD)",[3]; 44.8 mg single 9 h IV infusion,40.00 (0.000) min and 40 min
same,subjects achieving the maximum sleep latency (40 min) in MWT,"[3]; 44.8 mg, all four 40-min trials",4 out of 4
same,"Sleep latency in MWT by visit, Mean","[3]; 44.8 mg, 10:00",40.00 min
same,"Sleep latency in MWT by visit, Mean","[3]; 44.8 mg, 12:00",40.00 min
same,"Sleep latency in MWT by visit, Mean","[3]; 44.8 mg, 14:00",40.00 min
same,"Sleep latency in MWT by visit, Mean","[3]; 44.8 mg, 16:00",40.00 min
same,effect on wakefulness as measured by time to sleep onset on the MWT,"[3]; 5, 11.2, 44.8 mg, NT1 patients",clear dose dependent effect
same,Average Sleep Latency in MWT,"[3]; Cmpd A 5 mg, Mean",22.38 min
same,Average Sleep Latency in MWT,"[3]; Cmpd A 5 mg, Median",21.69 min
same,Average Sleep Latency in MWT,"[3]; Cmpd A 11.2 mg, Mean",37.59 min
same,Average Sleep Latency in MWT,"[3]; Cmpd A 11.2 mg, Median",40.00 min
same,Average Sleep Latency in MWT,"[3]; Cmpd A 44.8 mg, Mean",40.00 min
same,Average Sleep Latency in MWT,"[3]; Cmpd A 44.8 mg, Median",40.00 min
same,mean sleep latency in the lunch session (14:00),[3]; higher dose groups of Compound A,over 30 min
same,Subjects without any Events (cataplexy),[4]; 5 mg (N = 6),3 (50.0) N (%)
same,"Number of Times of a Cataplexy Episode, Mean (SD)","[4]; 5 mg, After End of Infusion",10.2 (23.45)
same,"Number of Times of a Cataplexy Episode, Median","[4]; 5 mg, After End of Infusion",0.5
same,"Number of Times of a Cataplexy Episode, Mean (SD)","[4]; 5 mg, During Infusion",0.0 (0.00)
same,"Number of Times of a Cataplexy Episode, Median","[4]; 5 mg, During Infusion",0.0
same,Subjects without any Events (cataplexy),[4]; 11.2 mg (N = 4),3 (75.0) N (%)
same,"Number of Times of a Cataplexy Episode, Mean (SD)","[4]; 11.2 mg, After End of Infusion",0.0 (0.00)
same,"Number of Times of a Cataplexy Episode, Median","[4]; 11.2 mg, After End of Infusion",0.0
same,"Number of Times of a Cataplexy Episode, Mean (SD)","[4]; 11.2 mg, During Infusion",0.8 (1.50)
same,"Number of Times of a Cataplexy Episode, Median","[4]; 11.2 mg, During Infusion",0.0
same,Subjects without any Events (cataplexy),[4]; 44.8 mg (N = 4),3 (75.0) N (%)
same,"Number of Times of a Cataplexy Episode, Mean (SD)","[4]; 44.8 mg, After End of Infusion",0.8 (1.50)
same,"Number of Times of a Cataplexy Episode, Median","[4]; 44.8 mg, After End of Infusion",0.0
same,"Number of Times of a Cataplexy Episode, Mean (SD)","[4]; 44.8 mg, During Infusion",0.0 (0.00)
same,"Number of Times of a Cataplexy Episode, Median","[4]; 44.8 mg, During Infusion",0.0
same,Number of Events of Cataplexy per Week in one particular patient,"[4]; During Cmpd A infusion (baseline 808, during placebo infusion 83)",0
same,Number of Events of Cataplexy per Week in one particular patient,[4]; Post Cmpd A infusion,58
same,frequency of cataplexy compared to baseline frequency in one patient of cohort 7,[4]; during the infusion of Compound A,remarkably improved

# — US20220339143A1, “TAK-925 FOR USE IN TREATING NARCOLEPSY” (Takeda Pharmaceutical Company Limited, priority 2019, published 2022)
